Assay results: US4558052A, “10-Bromosandwicine, 10-bromoisosandwicine, pharmaceutical compositions thereof, and methods of treating heart rhythm disorders with them” (Kali-Chemie Pharma GmbH, priority 1979, dated 1985)
Entries after “also recorded” stand apart in the source; their conditions may differ. Where a name gives a salt, the structure may show the parent alone.

What was measured:
[1] = words, known from literature; cited from earlier work
[2] = tested on: male NMRI-mice; assay: Minimum symptom dose at which any undesirable side effects are detected (Campbell and Richter); type: in vivo; conditions: dose causing changes in behaviour in 2 out of 3 mice
Description: B. Determination of minimum symptom dose at which any undesirable side effects are detected.
The minimum symptom dose is determined in male NMRI-mice (body weight range 18-22 g) according to the procedure of Campbell and Richter (see D. E. S. Campbell and W. Richter. Acta Pharmacol. Toxicol. 25 (1967) pp. 345-363). The minimum symptom dose is defined as that dose in μmol/kg which after i.p. administration causes changes in behaviour in 2 out of 3 mice. The minimum symptom dose is a measure for evaluation of undesirable side effects.

[3] = tested on: cardiac extra-systoles induced by aconitine; assay: Antiarrhythmic activity against cardiac extra-systoles induced by aconitine in rats (Raschack); type: in vivo; conditions: i.v., equitoxic dose about 5% of the i.p. LD50 in mice, aconitine 5 μg/kg/min i.v., vs control group
Description: C. Determination of antiarrhythmic activity against cardiac extra-systoles induced by aconitine in rats.
The protective effects of the compounds against extra-systoles (ES) caused by aconitine infusion in rats are determined according to the method of Raschack (Arzneimittelforsch. 25 (1975) 639-641).
Male Wistar rats having a body weight of 320-400 g are anesthetized by i.p. application of 1.25 g/kg urethane. The animals are placed on their backs and their electrocardiogram is registered every 30 seconds during the test. The animals are given an i.v. aconitine infusion at an infusion rate of 5 μg/kg/min of aconitine with an infusion volume of 0.1 ml/minute. 5 Minutes prior to starting the aconitine infusion the animals are given a solution of the test compound in an amount of 2 ml/kg bodyweight of isotonic NaCl solution by i.v. infusion over a period of about 2.5 minutes. A control group of animals is given only the vehicle solution. The infusion time until occurence of extra-systoles is determined.
Antiarrhythmically active test compounds lead to a retardation of the onset of aconitine-induced cardiac extra-systoles in the treated animals as compared with the group of control animals. The degree of prolongation of aconitine-infusion time and thus of increase of administered amount of aconitine up to which the animals are protected against the aconitine induced extra-systoles is an indication of the degree of antiarrhythmic activity of the test compounds.
Equitoxic doses of the test compounds are used namely doses which correspond to about 5% of the i.p. LD50 of the compound in mice. The % increase in aconitine infusion time (that is % increase of administered amount of aconitine) until onset of the extra-systoles in the treated animals as compared with the control group is determined.

[4] = tested on: male NMRI-mice; assay: Acute toxicity LD50 i.p. and p.o. in mice; type: in vivo; conditions: probit analysis
Description: A. Determination of acute toxicity LD50 i.p. and p.o. in mice.
The acute toxicity of the compounds is determined in male NMRI-mice (body weight range 18-22 g) after i.p. or p.o. administration. The LD50 values are calculated by means of electronic data processing through a probit analysis.

[5] = Antiarrhythmic activity in a standard pharmacological in vivo test procedure; conditions: words

SMILES	cardiac / antiarrhythmic activities [1]	Minimum symptom dose i.p. [2]	Toxicity LD50 i.p. [4]	Toxicity LD50 p.o. [4]	further results
CCC1C2CC3C4N(C)c5ccc(Br)cc5C45CC(C2C5O)N3C1O (stereo not drawn) [10-bromoajmaline]	cardiac activities	–	–	–	–
CCC1C2CC3C4N(C)c5ccc(Br)cc5C45CC(C2C5O)N3C1O (stereo not drawn) [10-bromoisosandwicine hydrogen tartrate, 10-bromoisosandwicinium hydrogentartrate]	–	3 µmol/kg	25 µmol/kg	65 µmol/kg	Antiarrhythmic activity, ES-inhibiting effect: % prolongation of aconitine infusion time until onset of extra-systoles [3]: 25%
CCC1C2CC3C4N(C)c5ccc(Br)cc5C45CC(C2C5O)N3C1O (stereo not drawn) [10-bromosandwicine hydrogen tartrate, 10-bromosandwicine hydrogentartrate]	–	92 µmol/kg	307 µmol/kg	2200 µmol/kg	Antiarrhythmic activity, ES-inhibiting effect: % prolongation of aconitine infusion time until onset of extra-systoles [3]: 25%
CC[C@H]1[C@@H]2C[C@H]3[C@@H]4N(C)c5ccccc5[C@]45C[C@@H]([C@H]2[C@H]5O)N3[C@@H]1O [Ajmaline]	cardiac activities including antiarrhythmic activities	–	–	–	–
CCC1C2CC3C4N(C)c5ccccc5C45CC(C2C5O)N3C1O (stereo not drawn) [Isosandwicine hydrogen fumarate]	–	10 µmol/kg	~ 56 μmol/kg	471 µmol/kg	ES-inhibiting effect (result in words) [3]: not significant
CCC1C2CC3C4N(C)c5ccccc5C45CC(C2C5O)N3C1O (stereo not drawn) [Sandwicine hydrogen tartrate]	–	58 µmol/kg	~ 325 μmol/kg	1530 µmol/kg	ES-inhibiting effect (result in words) [3]: not significant
CC[C@@H]1[C@H]2C[C@H]3[C@@H]4N(C)c5ccccc5[C@]45C[C@@H](C2[C@H]5O)N3[C@H]1O (stereo partly drawn) [isoajmaline]	cardiac activities including antiarrhythmic activities	–	–	–	–
CCC1C2CC3C4N(C)c5ccccc5C45CC(C2C5O)N3C1O (stereo not drawn) [isosandwicine]	–	–	–	–	antiarrhythmic activity [5]: no significant antiarrhythmic effects; also recorded: no significant antiarrhythmic activities
CCC1C2CC3C4N(C)c5ccccc5C45CC(C2C5O)N3C1O (stereo not drawn) [sandwicine, Sandwicine]	–	–	–	–	antiarrhythmic activity [5]: no significant antiarrhythmic effects; also recorded: no significant antiarrhythmic activities
